For eleven compounds, IC50 results are on record in article PMC2248166, “Quantitative peptide binding motifs for 19 human and mouse MHC class I molecules derived using positional scanning combinatorial peptide libraries” (Immunome Research, 2008).

As usually defined, the IC50 is the midpoint of a concentration-inhibition curve. Lower therefore signals inhibition by little substance.

The assay addresses HLA A*3201 (Homo sapiens, UniProt P04439, A270S/D101S/D185E/E176V/E277Q/F133L/G103R/G107R/G231S/H175R/I121M/I218V/I322F/K168Q/L105A/L300P/L318F/M331R/P208A/P217A/Q94H/R106L/R138Q/S129P/T104I/T323A/T345S/V100E/V321M/V358M). The assay is described as follows: biochemical. The format is binding.

Where a SMILES comes first, the peptide text is derived from it.

Compound `CC[C@H](C)[C@H](NC(=O)[C@@H](N)CO)C(=O)N[C@@H](Cc1ccc(O)cc1)C(=O)NCC(=O)N[C@@H](Cc1ccccc1)C(=O)NCC(=O)N[C@H](C(=O)N[C@H](C(=O)N[C@@H](Cc1ccccc1)C(=O)O)[C@@H](C)O)C(C)C` [3102.0314] (H-SIYGFGVTF-OH) showed an IC50 of 0.11 nM. Compound `CC[C@H](C)[C@H](NC(=O)[C@@H](N)Cc1c[nH]cn1)C(=O)N[C@@H](Cc1ccc(O)cc1)C(=O)N[C@@H](Cc1ccccc1)C(=O)N[C@H](C(=O)N[C@@H](CO)C(=O)N[C@@H](CC(C)C)C(=O)N[C@@H](CC(C)C)C(=O)N[C@@H](CC(C)C)C(=O)O)C(C)C` [3102.0380] (H-HIYFVSLLL-OH) showed an IC50 of 15 nM. `CC[C@H](C)[C@H](N)C(=O)N[C@@H](CCSC)C(=O)N[C@@H](CCSC)C(=O)N[C@H](C(=O)N[C@@H](CC(C)C)C(=O)N[C@@H](CO)C(=O)N[C@H](C(=O)N[C@H](C(=O)N[C@H](C(=O)O)[C@@H](C)CC)[C@@H](C)CC)[C@@H](C)O)[C@@H](C)CC` [3102.0351] (H-IMMILSTII-OH): it took 11 nM to reach half-maximal inhibition (IC50). Turning to `CC[C@H](C)[C@H](NC(=O)[C@H](CO)NC(=O)[C@@H](N)CCCCN)C(=O)N[C@@H](CC(N)=O)C(=O)N[C@H](C(=O)N[C@@H](CCC(=O)O)C(=O)N[C@@H](Cc1ccc(O)cc1)C(=O)N[C@@H](CCCNC(=N)N)C(=O)N[C@@H](Cc1ccccc1)C(=O)O)C(C)C` [3102.0364] (H-KSINVEYRF-OH), 1.5 nM corresponded to half-maximal inhibition (IC50). Take `CSCC[C@H](NC(=O)[C@@H](N)Cc1c[nH]cn1)C(=O)N[C@@H](CC(C)C)C(=O)N[C@@H](CCC(=O)O)C(=O)N[C@@H](Cc1ccccc1)C(=O)N[C@@H](CC(C)C)C(=O)N[C@@H](Cc1ccc(O)cc1)C(=O)N[C@@H](CO)C(=O)N[C@@H](Cc1ccccc1)C(=O)O` [3102.0499] (H-HMLEFLYSF-OH): half-maximal inhibition (IC50) required 0.3 nM. As for `CC[C@H](C)[C@H](NC(=O)[C@H](CCCCN)NC(=O)[C@H](CCC(N)=O)NC(=O)[C@H](C)NC(=O)[C@@H](NC(=O)CNC(=O)[C@H](Cc1ccc(O)cc1)NC(=O)[C@H](CC(C)C)NC(=O)[C@@H](N)CCSC)[C@@H](C)CC)C(=O)O` [3102.0335] (H-MLYGIAQKI-OH), the IC50 turned out to be 12 nM. Compound `CC[C@H](C)[C@H](NC(=O)[C@H](CC(N)=O)NC(=O)[C@@H](NC(=O)[C@@H](NC(=O)[C@@H](N)CO)[C@@H](C)O)[C@@H](C)CC)C(=O)N[C@@H](CS)C(=O)N[C@@H](CC(C)C)C(=O)N1CCC[C@H]1C(=O)N[C@@H](Cc1ccc(O)cc1)C(=O)O` [3102.0390] (H-STINICLPY-OH) registered an IC50 of 32 nM.

The compound `CC[C@H](C)[C@H](NC(=O)[C@H](CC(N)=O)NC(=O)[C@H](CCSC)NC(=O)[C@@H](NC(=O)[C@@H](N)CCSC)[C@@H](C)O)C(=O)N[C@H](C(=O)N[C@@H](CC(N)=O)C(=O)N[C@@H](Cc1ccccc1)C(=O)N[C@@H](Cc1ccccc1)C(=O)O)C(C)C` [3102.0518] (H-MTMNIVNFF-OH) came in with an IC50 of 1.9 nM. For `CC(C)C[C@H](NC(=O)[C@@H](N)Cc1ccc(O)cc1)C(=O)N[C@@H](Cc1ccccc1)C(=O)N[C@@H](CO)C(=O)N[C@@H](CCC(N)=O)C(=O)N[C@@H](CC(N)=O)C(=O)N[C@@H](Cc1ccc(O)cc1)C(=O)N[C@@H](CO)C(=O)N[C@@H](Cc1ccccc1)C(=O)O` [3102.0410] (H-YLFSQNYSF-OH), the IC50 came to 1.4 nM. Turning to `CC[C@H](C)[C@H](N)C(=O)N[C@@H](CC(C)C)C(=O)N[C@@H](Cc1ccc(O)cc1)C(=O)N[C@@H](Cc1ccc(O)cc1)C(=O)N[C@@H](CC(C)C)C(=O)N[C@@H](CO)C(=O)N[C@@H](C)C(=O)N[C@@H](CCCCN)C(=O)N[C@H](C(=O)O)[C@@H](C)CC` [3102.0300] (H-ILYYLSAKI-OH), the IC50 is 8.9 nM. With `CC[C@H](C)[C@H](N)C(=O)N[C@@H](CO)C(=O)N[C@@H](CC(C)C)C(=O)N[C@@H](Cc1ccccc1)C(=O)N[C@@H](Cc1ccc(O)cc1)C(=O)N[C@H](C(=O)N[C@@H](Cc1ccccc1)C(=O)N[C@@H](C)C(=O)N[C@H](C(=O)O)[C@@H](C)CC)[C@@H](C)O` [3102.0415] (H-ISLFYTFAI-OH), inhibition was half-maximal at 0.57 nM (IC50).
